{"source": "paper PMC10619133", "about": "“The catechol moiety of obafluorin is essential for antibacterial activity” (RSC Chemical Biology, 2023)", "experiment": "Hydrolysis of the β-lactone in HEPES buffer monitored by HPLC", "assay_type": "physicochemical", "conditions": "for hydrolysis of β-lactone (in words): 30 min, no Fe^3+", "description": "Hydrolysis of 1–4 was analysed on an Agilent 1290 system fitted with an Agilent LC/MSD MS spectrometer. A Kinetex XB-C18, 100 × 4.6 mm, 5 μM column (Phenomenex) was used with a gradient elution: ACN/0.1% (v/v) FA (H2O) gradient from 5/95 for 0–0.5 min, 5/95 to 98/2 0.5–12 min, 98/2 for 12–13 min, gradient to 5/95 13–13.5 min and 5/95 for 13.5–15 min. The flow rate was 0.6 mL min^−1 and the injection volume of each sample 5 μL. DAD signals were analysed at 270 nm, with a bandwidth of 4 nm. MS were recorded in positive mode using an atmospheric pressure ionisation electrospray (API-ES) ion source with a capillary voltage of 3000 V. The drying gas temperature was 350 °C with a flow rate of 12 L min^−1. The scan parameters were: mass range = 200–1500; fragmentor = 70; gain EMV = 1.0; threshold = 150; step-size = 0.10. Data were analysed with Agilent ChemStation software.\nFive solutions of HEPES buffer (111 mM) were prepared at pH 6.0, 6.5, 7.0, 7.5 and 8.0 respectively. A further five solution of HEPES buffer (111 mM) with Fe(NO3)3.9H2O ([…]) were also prepared at pH 6.0, 6.5, 7.0, 7.5, 8.0 respectively. Stock solutions of 1–4 (10 mM) were prepared in DMSO. For each hydrolysis experiment, stock solution of 1–4 (10 μL) was added the HEPES buffer (90 μL) or the HEPES + Fe(NO3)3.9H2O buffer (90 μL), to give final concentrations of HEPES (100 mM), 1–4 (1 mM) and Fe^3+ (0 or 1 mM). The reaction mixtures were shaken using a bench top vortex and left to stand for 30 min, after which the samples were analysed by HPLC using the Analytical HPLC method. All stock solutions of 1–4 were tested at every pH, with and without Fe^3+ and all experiments were repeated in triplicate."}
{"smiles": "O=C(N[C@@H]1C(=O)O[C@@H]1Cc1ccc([N+](=O)[O-])cc1)c1cccc(O)c1O", "note": "[compound 1, Obafluorin]", "values": [{"measurement": "effect of added Fe^3+ on hydrolysis (in words)", "setting": "Fe^3+ 1 mM, HEPES 100 mM, pH 6.0–8.0, 30 min", "value": "protected 1 against hydrolysis at all pH values"}, {"measurement": "hydrolysis of β-lactone (in words)", "setting": "pH 6.0, HEPES 100 mM", "value": "little change"}, {"measurement": "hydrolysis of β-lactone (in words)", "setting": "pH 8.0, HEPES 100 mM", "value": "majority of 1 in the hydrolysed form"}]}
